{"source": "patent US8318504B2", "about": "“MRP2 efflux pathway prognostic method” (priority 2009, dated 2012)", "key": {"OATP2B1": {"biological_target": "T1, OATP2B1 (Homo sapiens, UniProt O94956)", "T1 construct": "expressed in transfected cells; host or cells: CHO cells (stably transfected; Treiber et al. 2007)", "T1 sequence (O94956 1-709)": "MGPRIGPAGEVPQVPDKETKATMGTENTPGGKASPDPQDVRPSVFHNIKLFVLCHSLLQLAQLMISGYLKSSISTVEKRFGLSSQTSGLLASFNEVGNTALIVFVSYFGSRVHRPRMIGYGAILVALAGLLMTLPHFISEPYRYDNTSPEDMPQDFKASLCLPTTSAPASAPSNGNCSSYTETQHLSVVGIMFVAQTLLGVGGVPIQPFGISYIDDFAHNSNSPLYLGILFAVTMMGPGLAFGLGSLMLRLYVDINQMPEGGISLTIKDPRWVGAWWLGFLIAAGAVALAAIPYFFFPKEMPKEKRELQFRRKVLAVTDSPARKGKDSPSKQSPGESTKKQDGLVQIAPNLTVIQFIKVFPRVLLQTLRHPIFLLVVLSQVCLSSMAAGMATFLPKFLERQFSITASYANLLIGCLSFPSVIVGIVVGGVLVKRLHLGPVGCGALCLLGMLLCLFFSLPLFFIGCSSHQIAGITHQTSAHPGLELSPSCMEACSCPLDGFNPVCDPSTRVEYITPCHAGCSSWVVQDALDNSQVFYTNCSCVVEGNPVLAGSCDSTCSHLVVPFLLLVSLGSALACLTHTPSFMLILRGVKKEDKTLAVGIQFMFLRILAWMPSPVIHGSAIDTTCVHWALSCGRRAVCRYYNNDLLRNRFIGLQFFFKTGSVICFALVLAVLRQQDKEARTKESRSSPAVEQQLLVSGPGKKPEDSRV", "experiment": "Uptake of CLF into CHO cells expressing OATP2B1", "format": "cell-based", "settings": "1 μmol/L CLF, 1 or 5 minutes", "protocol": "cDNA for human NTCP [Hagenbuch et al., J Clin Invest 1994 March; 93(3): 1326-1331] was cut with EcoRV and HindI and the coding region ligated into pcDNA5/FRT (Invitrogen, Life-Technologies, Carlsbad, Calif.). CHO FlpIn cells (Invitrogen, Life-Technologies) were transfected with the resulting construct using Lipofectamine® 2000 (Invitrogen, Life-Technologies). Stably transfected cells were selected with 550 μg Hygromycin-B in HAM-F12 medium (Gibco, Invitrogen, Life-Technologies). Transfected cells were cloned with the limiting dilution method. […] To further characterize the cloned cells, immunofluorescence localization of NTCP using a polyclonal antibody against NTCP [Kullak-Ublick G et al., Gastroenterology 1997 October; 113(4):1295-1305] was performed as described by Huber R D et al. [Am J Physiol Cell Physiol 2007 February; 292(2):[…]-[…]]. CHO cells expressing OATP1B1, OATP1B3 and OATP2B1 were described previously [Treiber et al., DMD 35:1400-1407, 2007]. […] After complete solubilization, 1.5 ml was used to measure fluorescence in a Perkin-Elmer LS-5 luminescence-spectrometer set at λexe 486 nm (slit 10 nm) and λem 520 nm (slit 5 nm). Protein was determined with the bicinchoninic acid method using a kit from Interchim (Montfuçon, France). […]"}, "ABCB11": {"biological_target": "T2, ABCB11 (Homo sapiens, UniProt O95342)", "T2 construct": "His tag (inferred from the anti-his probe used on the Western blot); made in house; host or cells: Sf21 insect cells, baculovirus (gift from Thompson); plasma membrane vesicles", "T2 sequence (O95342 whole entry)": "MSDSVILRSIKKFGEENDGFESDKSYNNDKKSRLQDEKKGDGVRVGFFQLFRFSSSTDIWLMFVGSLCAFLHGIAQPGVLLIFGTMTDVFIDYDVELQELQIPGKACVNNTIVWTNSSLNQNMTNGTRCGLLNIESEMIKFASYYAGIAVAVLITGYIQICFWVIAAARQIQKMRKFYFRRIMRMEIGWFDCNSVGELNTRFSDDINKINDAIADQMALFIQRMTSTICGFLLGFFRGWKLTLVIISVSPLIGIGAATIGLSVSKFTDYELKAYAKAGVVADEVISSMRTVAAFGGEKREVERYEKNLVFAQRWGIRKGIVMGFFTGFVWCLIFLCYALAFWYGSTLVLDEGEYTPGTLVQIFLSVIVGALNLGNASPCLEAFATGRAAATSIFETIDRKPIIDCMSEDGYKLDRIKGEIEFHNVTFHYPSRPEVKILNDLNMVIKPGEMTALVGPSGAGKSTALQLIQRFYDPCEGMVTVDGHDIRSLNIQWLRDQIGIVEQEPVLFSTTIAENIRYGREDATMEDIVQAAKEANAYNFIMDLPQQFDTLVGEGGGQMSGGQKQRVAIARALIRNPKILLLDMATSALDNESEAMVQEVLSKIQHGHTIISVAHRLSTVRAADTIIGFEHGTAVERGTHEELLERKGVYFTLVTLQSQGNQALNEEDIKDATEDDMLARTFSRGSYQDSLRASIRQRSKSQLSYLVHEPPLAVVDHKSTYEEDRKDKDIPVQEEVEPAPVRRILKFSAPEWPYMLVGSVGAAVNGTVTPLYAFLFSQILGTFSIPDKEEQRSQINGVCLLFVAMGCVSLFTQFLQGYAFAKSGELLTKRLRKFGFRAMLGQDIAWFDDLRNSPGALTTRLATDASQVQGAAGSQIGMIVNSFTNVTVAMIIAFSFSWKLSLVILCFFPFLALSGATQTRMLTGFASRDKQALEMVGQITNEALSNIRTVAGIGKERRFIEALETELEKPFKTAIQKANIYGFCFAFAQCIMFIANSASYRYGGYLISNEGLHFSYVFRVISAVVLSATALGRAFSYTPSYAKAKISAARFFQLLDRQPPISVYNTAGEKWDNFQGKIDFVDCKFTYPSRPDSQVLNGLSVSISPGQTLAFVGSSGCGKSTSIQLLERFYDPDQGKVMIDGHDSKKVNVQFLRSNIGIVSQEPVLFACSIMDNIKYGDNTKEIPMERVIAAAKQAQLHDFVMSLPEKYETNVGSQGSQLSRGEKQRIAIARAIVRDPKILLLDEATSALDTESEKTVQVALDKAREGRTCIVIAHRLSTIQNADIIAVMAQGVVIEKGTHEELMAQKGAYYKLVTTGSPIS", "experiment": "ATP-dependent transport of CLF into Sf21 membrane vesicles containing ABCB11", "format": "biochemical", "settings": "compared with control vesicles", "protocol": "(§1) The production of recombinant baculovirus was as described by de Waart et al. [Liver Int 2006 April; 26(3):362-368]. ABCC3 and ABCG2-recombinant baculovirus were a kind gift from Borst [Breedveld P. et al., Cancer Res 2004 Aug. 15; 64(16):5804-5811 and Borst P. et al., J Biol Chem 2001 Dec. 7; 276(49):46400-46407.]. ABCB11-recombinant baculovirus was a kind gift from Thompson [Thompson R J et al., Gastroenterology 2002 November; 123(5):1649-1658]. Sf21 cells grown at 27° C. were infected with ABCB11, ABCC2, ABCC3 and ABCG2-cDNA containing baculovirus. Cells were harvested at 2-4 days after infection. Membrane vesicle preparation was as described by de Waart et al. [Liver Int 2006 April; 26(3):362-368].\n(§2) Transport studies with membrane vesicles were performed using the rapid filtration technique as described by Heijn M et al. [Am J Physiol 1992 January; 262(1 Pt 1):C104-C110]. Radiolabel was measured with a scintillation counter. When CLF was used as a probe, filters were placed in a glass tube, 0.1% Triton-X-100 was added and the tubes vortexed. Samples were pipetted in 96-well plates (Kartell, Noviglio, Italy) and the amount CLF quantitated by measurement of fluorescence at λexe 485 nm and λcm 520 nm using a NovoStar (BMG-labtech, Offenburg, Germany)."}, "ABCC2": {"biological_target": "T3, ABCC2 (Homo sapiens, UniProt Q92887)", "T3 construct": "made in house; host or cells: Sf21 insect cells, baculovirus; plasma membrane vesicles", "T3 sequence (Q92887 whole entry)": "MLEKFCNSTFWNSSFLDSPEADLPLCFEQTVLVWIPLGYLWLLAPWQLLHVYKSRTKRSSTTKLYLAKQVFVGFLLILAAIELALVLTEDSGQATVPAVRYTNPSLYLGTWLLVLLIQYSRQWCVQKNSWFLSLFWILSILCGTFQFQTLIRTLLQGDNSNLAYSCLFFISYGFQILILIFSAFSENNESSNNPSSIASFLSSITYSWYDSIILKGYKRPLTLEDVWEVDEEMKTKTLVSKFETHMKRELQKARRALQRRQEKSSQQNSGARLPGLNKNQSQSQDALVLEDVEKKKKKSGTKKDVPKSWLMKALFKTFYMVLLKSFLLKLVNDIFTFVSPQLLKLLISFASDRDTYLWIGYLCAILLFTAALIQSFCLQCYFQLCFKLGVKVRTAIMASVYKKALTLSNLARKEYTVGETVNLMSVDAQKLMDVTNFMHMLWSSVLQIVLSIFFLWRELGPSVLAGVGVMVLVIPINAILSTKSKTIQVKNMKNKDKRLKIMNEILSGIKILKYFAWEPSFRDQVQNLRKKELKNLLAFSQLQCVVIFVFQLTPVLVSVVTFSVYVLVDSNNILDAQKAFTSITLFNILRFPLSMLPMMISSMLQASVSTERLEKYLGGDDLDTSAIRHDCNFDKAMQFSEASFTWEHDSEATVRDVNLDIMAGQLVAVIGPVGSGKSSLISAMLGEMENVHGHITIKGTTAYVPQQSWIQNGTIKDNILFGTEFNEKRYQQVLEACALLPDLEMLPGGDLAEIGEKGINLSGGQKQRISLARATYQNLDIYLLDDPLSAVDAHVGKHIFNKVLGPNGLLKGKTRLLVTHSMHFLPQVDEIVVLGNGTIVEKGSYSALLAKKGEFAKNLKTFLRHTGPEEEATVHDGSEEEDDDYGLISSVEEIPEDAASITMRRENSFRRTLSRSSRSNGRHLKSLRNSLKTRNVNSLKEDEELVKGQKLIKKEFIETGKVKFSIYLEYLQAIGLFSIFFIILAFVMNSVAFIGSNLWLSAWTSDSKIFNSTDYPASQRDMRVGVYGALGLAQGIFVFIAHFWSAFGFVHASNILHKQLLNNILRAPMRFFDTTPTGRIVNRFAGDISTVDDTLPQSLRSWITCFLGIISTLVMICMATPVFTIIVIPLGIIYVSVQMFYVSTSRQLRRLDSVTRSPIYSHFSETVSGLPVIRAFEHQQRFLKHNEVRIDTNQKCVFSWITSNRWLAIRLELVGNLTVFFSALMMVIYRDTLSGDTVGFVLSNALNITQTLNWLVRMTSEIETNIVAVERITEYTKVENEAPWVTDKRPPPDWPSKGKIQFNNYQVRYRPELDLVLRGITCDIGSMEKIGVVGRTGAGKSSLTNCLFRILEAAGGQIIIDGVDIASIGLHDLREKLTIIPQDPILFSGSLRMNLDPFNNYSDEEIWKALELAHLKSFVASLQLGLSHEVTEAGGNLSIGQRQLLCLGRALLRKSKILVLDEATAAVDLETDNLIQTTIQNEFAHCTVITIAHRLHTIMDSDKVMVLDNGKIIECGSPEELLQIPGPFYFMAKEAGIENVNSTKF", "experiment": "ATP-dependent transport of CLF into Sf21 membrane vesicles containing ABCC2", "format": "biochemical", "parameters": "Vmax of ABCC2 mediated transport of CLF: unit not given here", "protocol": "as §1\nas §2, with “Germany). […]” for “Germany).”"}}}
{"smiles": "CC(CCC(=O)NC(CCCCNC(=S)Nc1ccc(-c2c3ccc(=O)cc-3oc3cc(O)ccc23)c(C(=O)O)c1)C(=O)O)C1CCC2C3C(O)CC4CC(O)CCC4(C)C3CC(O)C12C", "note": "(stereo not shown) [CLF, cholyl lysyl fluorescein]", "values": [{"measurement": "uptake of CLF into OATP2B1 cells", "setting": "OATP2B1", "value": "no uptake"}, {"measurement": "ATP-dependent transport of CLF in ABCB11 containing membrane vesicles", "setting": "ABCB11", "value": "not higher than in control vesicles"}, {"measurement": "Vmax of ABCC2 mediated transport of CLF", "setting": "ABCC2; 10 μg total protein, presence or absence of 4 mmol/L ATP", "value": "436±215"}, {"measurement": "CLF transport in ABCC2 containing membrane vesicles", "setting": "ABCC2; compared to control wild type Sf21 membrane vesicles", "value": "much higher CLF transport rates"}]}
